pEC50, pKi: −log10 of the molar value.
What was measured:
BRD4 (BDI-BDII_K57-K550) = BRD4 (BDI-BDII_K57-K550) (Homo sapiens, UniProt O60885); assay: TR-FRET bromodomain binding assay; conditions: His-tagged tandem bromodomain, Alexa647-labeled probe; Ki calculated from IC50s, probe Kd and probe concentration
[1] = test system: breast cancer cell line MX-1; assay: MX-1 cell line proliferation assay (3-day, Cell Titer Glo); assay type: cell-based; conditions: Homo sapiens, MX1, MX-1 cells, 72 hours, read-out: Cellular proliferation: EC50
Method in brief: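 MX-1 cells plated at 5000 cells/well and adhered overnight at 37°, then treated for 3 days with 10-point 3-fold dilutions (final top 3 or 1 μM). Viability by Cell Titer Glo luminescence normalized to DMSO-treated cells; EC50 from sigmoidal curve fit.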

Compound	pKi (BRD4 (BDI-BDII_K57-K550))	pEC50 [1]
CCS(=O)(=O)Nc1cnc2c(c1)-c1cn(C)c(=O)cc1OCCCCc1cc(F)cc(F)c1O2 [Example A-35, N-(11,13-difluoro-2-methyl-3-oxo-2,3,6,7,8,9-hexahydrobenzo[11,12][1,6]dioxacyclododecino[2,3-b:4,5-c′]dipyridin-17-yl)ethanesulfonamide]	9.17	8.38
CC(=O)Nc1ccc2c(c1)-c1cn(C)c(=O)cc1OCCCc1cc(Cl)ccc1O2 [Example A-11, N-(10-chloro-2-methyl-3-oxo-3,6,7,8-tetrahydro-2H-dibenzo[4,5:7,8][1,6]dioxacycloundecino[3,2-c]pyridin-16-yl)acetamide]	8.27	7.51
Cn1cc2c(cc1=O)OCCCCc1cc(C(F)(F)F)ccc1Oc1ccc(NS(C)(=O)=O)cc1-2 [Example A-51, N-(2-methyl-3-oxo-11-(trifluoromethyl)-2,3,6,7,8,9-hexahydrodibenzo[4,5:7,8][1,6]dioxacyclododecino[3,2-c]pyridin-17-yl)methanesulfonamide]	8.76	7.85
COC(=O)c1cnc2c(c1)-c1cn(C)c(=O)cc1OCCCCc1cc(Cl)ccc1O2 [Example A-31, methyl 11-chloro-2-methyl-3-oxo-2,3,6,7,8,9-hexahydrobenzo[11,12][1,6]dioxacyclododecino[2,3-b:4,5-c′]dipyridine-17-carboxylate]	7.61	6.52
CCS(=O)(=O)c1ccc2c(c1)-c1cn(C)c(=O)cc1OCCCc1ccccc1O2 [Example A-1, 16-(ethylsulfonyl)-2-methyl-7,8-dihydro-2H-dibenzo[4,5:7,8][1,6]dioxacycloundecino[3,2-c]pyridin-3(6H)-one]	8.34	8.16
Cn1cc2c(cc1=O)OCCCCc1ccncc1Oc1ccc(N)cc1-2 [Example A-28, 17-amino-2-methyl-6,7,8,9-tetrahydrobenzo[4,5][1,6]dioxacyclododecino[3,2-c:7,8-c′]dipyridin-3(2H)-one]	7.07	< 6.00
CCS(=O)(=O)c1ccc2c(c1)-c1nn(C)c(=O)cc1OCCCCc1cc(F)cc(F)c1O2 [Example A-57, 17-(ethylsulfonyl)-11,13-difluoro-2-methyl-6,7,8,9-tetrahydrodibenzo[4,5:7,8][1,6]dioxacyclododecino[3,2-c]pyridazin-3(2H)-one]	8.07	7.27

Continued, values first:

pKi (BRD4 (BDI-BDII_K57-K550))	pEC50 [1]	Compound
7.97	8.17	CCOC(=O)c1ccc2c(c1)-c1cn(C)c(=O)cc1OCCOCc1cc(Cl)ccc1O2 [Example B-17c, ethyl 11-chloro-2-methyl-3-oxo-3,6,7,9-tetrahydro-2H-dibenzo[6,7:9,10][1,4,8]trioxacyclododecino[11,12-c]pyridine-17-carboxylate]
8.29	8.10	CCS(=O)(=O)Nc1ccc2c(c1)-c1cn(C)c(=O)cc1OCCN(CC1CC1)Cc1cc(Cl)ccc1O2 [Example B-12, N-[11-chloro-8-(cyclopropylmethyl)-2-methyl-3-oxo-2,3,6,7,8,9-hexahydrodibenzo[f,i]pyrido[3,4-k][1,8,4]dioxazacyclododecin-17-yl]ethanesulfonamide]
9.00	6.82	CCOC(=O)NS(=O)(=O)N1CCOc2cc(=O)n(C)cc2-c2cc(NS(=O)(=O)CC)ccc2Oc2ccc(Cl)cc2C1 [Example B-15, ethyl ({11-chloro-17-[(ethylsulfonyl)amino]-2-methyl-3-oxo-2,3,6,7-tetrahydrodibenzo[f,i]pyrido[3,4-k][1,8,4]dioxazacyclododecin-8(9H)-yl}sulfonyl)carbamate]
8.65	7.77	CCS(=O)(=O)Nc1ccc2c(c1)-c1cn(C)c(=O)cc1OCCN(CCC(F)(F)F)Cc1cc(Cl)ccc1O2 [Example B-13, N-[11-chloro-2-methyl-3-oxo-8-(3,3,3-trifluoropropyl)-2,3,6,7,8,9-hexahydrodibenzo[f,i]pyrido[3,4-k][1,8,4]dioxazacyclododecin-17-yl]ethanesulfonamide]
